Measured values published in article PMC4730229, “Benzobisthiazoles Represent a Novel Scaffold for Kinase Inhibitors of CLK Family Members” (Biochemistry, 2015).

Legend:
Type in all cases: biochemical
[1] = target: T1, GST-CLK2cd (CLK2 catalytic domain) (Homo sapiens, UniProt P49760); assay: High-throughput screen, Kinase-Glo in vitro kinase assay; conditions: compound at 10 μM; read-out: percentage of inhibition on CLK2 (primary screen)
T1 construct: cDNA encoding the CLK2 catalytic domain (CLK2cd, amino acids 140–496); made in house; host or cells: Escherichia coli BL21(DE3)-R3-lambda-PPase
T1 sequence (P49760 140-496): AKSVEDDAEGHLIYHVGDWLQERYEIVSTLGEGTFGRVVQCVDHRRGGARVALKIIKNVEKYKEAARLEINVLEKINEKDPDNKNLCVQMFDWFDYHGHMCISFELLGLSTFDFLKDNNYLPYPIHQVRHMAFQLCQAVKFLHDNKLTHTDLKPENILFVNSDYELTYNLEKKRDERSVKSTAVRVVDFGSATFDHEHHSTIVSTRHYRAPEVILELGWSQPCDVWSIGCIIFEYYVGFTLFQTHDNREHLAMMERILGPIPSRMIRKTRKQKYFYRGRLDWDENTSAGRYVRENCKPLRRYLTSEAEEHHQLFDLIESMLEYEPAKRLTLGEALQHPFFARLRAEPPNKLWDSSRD
Method: A small molecule inhibitor library consisting of 1600 compounds was obtained from LIFE Chemicals (Kiev, Ukraine). These compounds are part of the CUTE kinase collection that was predicted by in silico profiling against a panel of targets and includes potent kinase inhibitor compounds.[16] Compounds were dissolved as 10 mM stocks in DMSO and stored at room temperature, in the presence of 5% humidity and 5% oxygen in the dark in a Roylan Storage Pod system. Compounds were dispensed into white 384-well plates using the Labcyte Echo520 instrument at a final concentration of 10 μM. Next, 5 μL of 144.92 nM purified GST-CLK2cd in kinase assay buffer A was added to the compounds, incubated for 10 min at room temperature prior to addition of 5 μL of a 2 μM ATP/10 μM S6K peptide mixture, and incubated again for 60 min at room temperature. Subsequently, 10 μL of Kinase-Glo was added to the wells, and the plates were analyzed after 10 min on the Envision II multilabel plate reader (PerkinElmer). […] The percentage of inhibition is equal to 100 – [(total ATP before assay – remaining ATP in assay with compound)/(total ATP before assay – remaining ATP in assay with DMSO) × 100].

firefly luciferase = assay: Luciferase inhibition assay (Kinase-Glo, no kinase); conditions: compound at 10 μM
Method: For analysis of luciferase inhibition, 10 μL of luciferase reagent (Kinase-Glo, Promega) was added to 10 μL of a mixture consisting of 1 μM ATP and 5 μM S6K and 10 μM compound (potential kinase inhibitor) in buffer A in the absence of kinase and incubated for 10 min at room temperature in a white well plate before the luminescence was read. The percentage of inhibition is equal to (luminescence in the assay without compound – luminescence in the assay with compound)/(luminescence in the assay without compound) × 100.

Dyrk1A = target: T2, Dyrk1A (Homo sapiens, UniProt Q13627); assay: Kinase profiling (radioactive filter binding); conditions: for DYRK1A activity in kinase profiling: 1 uM compound; for inhibition at 1 µM: 1 μM compound, read-out: inhibitory activity toward DYRK1A in kinase panel
T2 construct: purchased Invitrogen PV3785

BRSK2 = BRSK2 (Homo sapiens, UniProt Q8IWQ3); assay: Kinase profiling (radioactive filter binding); conditions: 1 uM compound
Method: (§1) 3A5 and 5E4 were sent to the International Centre for Kinase Profiling at the MRC Protein Phosphorylation and Ubiquitylation Unit for profiling (as described in ref ([17])). Compounds were profiled against 140 kinases using a radioactive ([^33P]ATP) filter binding assay at a concentration of 1 μM. Results were obtained as inhibition of kinase activity and are listed in Supplementary Table 2.

TBK1 = TBK1 (Homo sapiens, UniProt Q9UHD2); assay: Kinase profiling (radioactive filter binding); conditions: 1 uM compound
Method: as §1

MPSK1 = MPSK1 (Homo sapiens, UniProt O75716); assay: Kinase profiling (radioactive filter binding); conditions: 1 uM compound
Method: as §1

MAP4K3 = MAP4K3 (Homo sapiens, UniProt Q8IVH8); assay: Kinase profiling (radioactive filter binding); conditions: 1 uM compound
Method: as §1

TESK1 = TESK1 (Homo sapiens, UniProt Q15569); assay: Kinase profiling (radioactive filter binding); conditions: 1 uM compound
Method: as §1

JNK2 = JNK2 (Homo sapiens, UniProt P45984); assay: Kinase profiling (radioactive filter binding); conditions: 1 uM compound
Method: as §1

SYK = SYK (Homo sapiens, UniProt P43405); assay: Kinase profiling (radioactive filter binding); conditions: 1 uM compound
Method: as §1

PKD1 = PKD1 (Homo sapiens, UniProt Q15139); assay: Kinase profiling (radioactive filter binding); conditions: 1 uM compound
Method: as §1

p38g MAPK = p38g MAPK (Homo sapiens, UniProt P53778); assay: Kinase profiling (radioactive filter binding); conditions: 1 uM compound
Method: as §1

WNK1 = WNK1 (Homo sapiens, UniProt Q9H4A3); assay: Kinase profiling (radioactive filter binding); conditions: 1 uM compound
WNK1, sequence (Q9H4A3 whole entry): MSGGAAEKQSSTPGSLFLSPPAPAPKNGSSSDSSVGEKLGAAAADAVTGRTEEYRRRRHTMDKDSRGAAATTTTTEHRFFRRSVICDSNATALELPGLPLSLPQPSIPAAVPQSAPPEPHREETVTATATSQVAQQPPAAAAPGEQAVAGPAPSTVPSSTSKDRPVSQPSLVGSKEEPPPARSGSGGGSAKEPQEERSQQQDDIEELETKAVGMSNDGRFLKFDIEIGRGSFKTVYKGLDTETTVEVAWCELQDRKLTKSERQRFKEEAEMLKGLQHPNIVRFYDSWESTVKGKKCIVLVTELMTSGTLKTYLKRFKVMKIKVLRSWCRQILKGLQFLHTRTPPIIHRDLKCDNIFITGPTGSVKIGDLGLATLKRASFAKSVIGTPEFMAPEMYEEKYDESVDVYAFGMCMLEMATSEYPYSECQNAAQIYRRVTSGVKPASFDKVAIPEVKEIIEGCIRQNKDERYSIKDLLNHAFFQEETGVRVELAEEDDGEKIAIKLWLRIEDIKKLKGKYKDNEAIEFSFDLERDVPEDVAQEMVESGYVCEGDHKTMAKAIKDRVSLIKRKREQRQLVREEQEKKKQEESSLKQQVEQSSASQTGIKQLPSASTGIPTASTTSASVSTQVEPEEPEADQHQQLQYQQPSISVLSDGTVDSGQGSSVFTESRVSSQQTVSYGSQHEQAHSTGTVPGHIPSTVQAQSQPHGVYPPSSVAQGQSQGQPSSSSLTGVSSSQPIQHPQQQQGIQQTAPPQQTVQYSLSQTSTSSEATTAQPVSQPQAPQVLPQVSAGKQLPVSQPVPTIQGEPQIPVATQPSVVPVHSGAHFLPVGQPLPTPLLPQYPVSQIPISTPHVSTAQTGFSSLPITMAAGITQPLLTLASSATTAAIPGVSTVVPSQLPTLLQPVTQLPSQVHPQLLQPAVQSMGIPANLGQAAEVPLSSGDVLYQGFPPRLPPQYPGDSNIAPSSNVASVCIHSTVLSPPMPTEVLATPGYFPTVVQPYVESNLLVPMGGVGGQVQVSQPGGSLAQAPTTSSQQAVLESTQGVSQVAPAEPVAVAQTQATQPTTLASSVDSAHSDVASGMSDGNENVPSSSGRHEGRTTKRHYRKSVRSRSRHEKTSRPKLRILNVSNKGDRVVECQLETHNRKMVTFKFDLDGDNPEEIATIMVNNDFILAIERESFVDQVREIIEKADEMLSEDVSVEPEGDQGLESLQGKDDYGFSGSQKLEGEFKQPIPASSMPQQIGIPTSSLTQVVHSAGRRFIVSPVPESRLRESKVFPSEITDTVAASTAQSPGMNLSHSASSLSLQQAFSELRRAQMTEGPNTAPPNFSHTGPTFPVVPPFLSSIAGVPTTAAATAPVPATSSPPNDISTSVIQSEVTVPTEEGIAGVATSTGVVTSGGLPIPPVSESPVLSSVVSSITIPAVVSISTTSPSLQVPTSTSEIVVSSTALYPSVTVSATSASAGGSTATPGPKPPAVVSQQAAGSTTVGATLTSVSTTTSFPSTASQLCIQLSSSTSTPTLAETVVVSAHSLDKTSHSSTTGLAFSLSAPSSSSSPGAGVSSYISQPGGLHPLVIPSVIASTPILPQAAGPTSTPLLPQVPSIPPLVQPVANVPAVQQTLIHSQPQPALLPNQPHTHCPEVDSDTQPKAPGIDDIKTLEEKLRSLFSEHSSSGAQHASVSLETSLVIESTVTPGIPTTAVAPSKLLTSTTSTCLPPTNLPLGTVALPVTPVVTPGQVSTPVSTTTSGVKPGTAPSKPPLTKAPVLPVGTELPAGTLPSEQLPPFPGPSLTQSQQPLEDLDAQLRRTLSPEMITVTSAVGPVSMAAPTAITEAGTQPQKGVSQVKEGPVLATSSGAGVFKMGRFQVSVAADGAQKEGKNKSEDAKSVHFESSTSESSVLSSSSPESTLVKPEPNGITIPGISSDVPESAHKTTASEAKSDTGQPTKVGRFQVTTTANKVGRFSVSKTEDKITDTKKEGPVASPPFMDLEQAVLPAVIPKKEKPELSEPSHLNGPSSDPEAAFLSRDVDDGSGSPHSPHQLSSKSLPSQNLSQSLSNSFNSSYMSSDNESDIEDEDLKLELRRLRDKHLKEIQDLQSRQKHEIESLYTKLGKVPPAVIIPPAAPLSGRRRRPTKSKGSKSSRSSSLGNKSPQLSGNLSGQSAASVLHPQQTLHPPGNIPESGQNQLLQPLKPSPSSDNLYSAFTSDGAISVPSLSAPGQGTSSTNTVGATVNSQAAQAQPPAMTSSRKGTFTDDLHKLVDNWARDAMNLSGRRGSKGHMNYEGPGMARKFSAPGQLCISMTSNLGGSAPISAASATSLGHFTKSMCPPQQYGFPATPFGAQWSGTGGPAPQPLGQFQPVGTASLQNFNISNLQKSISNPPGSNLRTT
Method: as §1

IRAK4 = IRAK4 (Homo sapiens, UniProt Q9NWZ3); assay: Kinase profiling (radioactive filter binding); conditions: 1 uM compound
IRAK4, sequence (Q9NWZ3 whole entry): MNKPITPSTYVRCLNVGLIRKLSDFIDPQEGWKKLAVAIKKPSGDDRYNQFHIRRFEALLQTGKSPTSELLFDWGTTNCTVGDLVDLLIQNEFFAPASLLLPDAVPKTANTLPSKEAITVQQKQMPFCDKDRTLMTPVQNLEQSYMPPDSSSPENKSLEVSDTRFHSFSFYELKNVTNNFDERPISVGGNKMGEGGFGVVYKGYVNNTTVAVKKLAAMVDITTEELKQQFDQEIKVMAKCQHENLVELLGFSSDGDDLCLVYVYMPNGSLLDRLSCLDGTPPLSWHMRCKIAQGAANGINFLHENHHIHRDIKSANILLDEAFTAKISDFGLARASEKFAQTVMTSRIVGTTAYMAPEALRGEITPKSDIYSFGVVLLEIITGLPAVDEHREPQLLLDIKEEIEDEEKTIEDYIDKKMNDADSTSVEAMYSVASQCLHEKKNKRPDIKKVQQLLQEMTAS
Method: as §1

MST4 = MST4 (Homo sapiens, UniProt Q9P289); assay: Kinase profiling (radioactive filter binding); conditions: 1 uM compound
MST4, sequence (Q9P289 whole entry): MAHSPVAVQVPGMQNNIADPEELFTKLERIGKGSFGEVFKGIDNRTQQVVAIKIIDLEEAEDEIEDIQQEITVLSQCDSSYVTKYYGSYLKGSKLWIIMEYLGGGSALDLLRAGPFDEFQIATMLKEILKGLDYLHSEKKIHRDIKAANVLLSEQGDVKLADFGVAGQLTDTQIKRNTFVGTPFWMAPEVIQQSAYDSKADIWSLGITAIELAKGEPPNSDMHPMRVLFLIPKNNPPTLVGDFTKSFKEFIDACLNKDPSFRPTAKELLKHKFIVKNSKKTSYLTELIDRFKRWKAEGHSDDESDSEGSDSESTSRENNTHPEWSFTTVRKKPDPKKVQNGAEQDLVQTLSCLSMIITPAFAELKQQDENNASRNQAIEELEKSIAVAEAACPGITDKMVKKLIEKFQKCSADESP
Method: as §1

DDR2 = DDR2 (Homo sapiens, UniProt Q16832); assay: Kinase profiling (radioactive filter binding); conditions: 1 uM compound
Method: as §1

MST2 = MST2 (Homo sapiens, UniProt Q13188); assay: Kinase profiling (radioactive filter binding); conditions: 1 uM compound
Method: as §1

Lck = Lck (Homo sapiens, UniProt P06239); assay: Kinase profiling (radioactive filter binding); conditions: 1 uM compound
Method: as §1

TGFBR1 = TGFBR1 (Homo sapiens, UniProt P36897); assay: Kinase profiling (radioactive filter binding); conditions: 1 uM compound
Method: as §1

PIM2 = PIM2 (Homo sapiens, UniProt Q9P1W9); assay: Kinase profiling (radioactive filter binding); conditions: 1 uM compound
Method: as §1

DAPK1 = DAPK1 (Homo sapiens, UniProt P53355); assay: Kinase profiling (radioactive filter binding); conditions: 1 uM compound
Method: as §1

MARK1 = MARK1 (Homo sapiens, UniProt Q9P0L2); assay: Kinase profiling (radioactive filter binding); conditions: 1 uM compound
Method: as §1

CDK2-Cyclin A = CDK2-Cyclin A (Homo sapiens, UniProt P24941); assay: Kinase profiling (radioactive filter binding); conditions: 1 uM compound
Method: as §1

MNK1 = MNK1 (Homo sapiens, UniProt Q9BUB5); assay: Kinase profiling (radioactive filter binding); conditions: 1 uM compound
Method: as §1

CLK2 = CLK2 (Homo sapiens, UniProt P49760); assay: Kinase profiling (radioactive filter binding); conditions: for CLK2 activity in kinase profiling: 1 uM compound; for inhibition at 1 µM: 1 μM compound, read-out: inhibition of CLK2 in kinase panel
CLK2, sequence (P49760 whole entry): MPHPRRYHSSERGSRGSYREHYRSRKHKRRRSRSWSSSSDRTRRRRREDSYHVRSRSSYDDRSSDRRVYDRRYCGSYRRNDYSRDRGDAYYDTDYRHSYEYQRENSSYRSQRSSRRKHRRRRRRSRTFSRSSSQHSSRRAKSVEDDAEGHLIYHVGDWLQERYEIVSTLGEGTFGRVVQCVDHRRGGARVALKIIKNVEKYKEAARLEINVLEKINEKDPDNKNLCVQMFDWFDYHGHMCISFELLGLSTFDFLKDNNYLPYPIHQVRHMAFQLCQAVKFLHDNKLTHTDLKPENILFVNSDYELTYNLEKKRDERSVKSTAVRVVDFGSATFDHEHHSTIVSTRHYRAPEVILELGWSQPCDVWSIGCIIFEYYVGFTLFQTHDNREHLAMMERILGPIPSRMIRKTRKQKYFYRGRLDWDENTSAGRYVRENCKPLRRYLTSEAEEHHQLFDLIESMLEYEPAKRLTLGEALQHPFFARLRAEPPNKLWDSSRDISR
Method: as §1

IRR = IRR (Homo sapiens, UniProt P14616); assay: Kinase profiling (radioactive filter binding); conditions: 1 uM compound
Method: as §1

HIPK1 = HIPK1 (Homo sapiens, UniProt Q86Z02); assay: Kinase profiling (radioactive filter binding); conditions: 1 uM compound
Method: as §1

GCK = GCK (Homo sapiens, UniProt Q12851); assay: Kinase profiling (radioactive filter binding); conditions: 1 uM compound
Method: as §1

BRK = BRK (Homo sapiens, UniProt Q13882); assay: Kinase profiling (radioactive filter binding); conditions: 1 uM compound
Method: as §1

EPH-A4 = EPH-A4 (Homo sapiens, UniProt P54764); assay: Kinase profiling (radioactive filter binding); conditions: 1 uM compound
EPH-A4, sequence (P54764 20-986): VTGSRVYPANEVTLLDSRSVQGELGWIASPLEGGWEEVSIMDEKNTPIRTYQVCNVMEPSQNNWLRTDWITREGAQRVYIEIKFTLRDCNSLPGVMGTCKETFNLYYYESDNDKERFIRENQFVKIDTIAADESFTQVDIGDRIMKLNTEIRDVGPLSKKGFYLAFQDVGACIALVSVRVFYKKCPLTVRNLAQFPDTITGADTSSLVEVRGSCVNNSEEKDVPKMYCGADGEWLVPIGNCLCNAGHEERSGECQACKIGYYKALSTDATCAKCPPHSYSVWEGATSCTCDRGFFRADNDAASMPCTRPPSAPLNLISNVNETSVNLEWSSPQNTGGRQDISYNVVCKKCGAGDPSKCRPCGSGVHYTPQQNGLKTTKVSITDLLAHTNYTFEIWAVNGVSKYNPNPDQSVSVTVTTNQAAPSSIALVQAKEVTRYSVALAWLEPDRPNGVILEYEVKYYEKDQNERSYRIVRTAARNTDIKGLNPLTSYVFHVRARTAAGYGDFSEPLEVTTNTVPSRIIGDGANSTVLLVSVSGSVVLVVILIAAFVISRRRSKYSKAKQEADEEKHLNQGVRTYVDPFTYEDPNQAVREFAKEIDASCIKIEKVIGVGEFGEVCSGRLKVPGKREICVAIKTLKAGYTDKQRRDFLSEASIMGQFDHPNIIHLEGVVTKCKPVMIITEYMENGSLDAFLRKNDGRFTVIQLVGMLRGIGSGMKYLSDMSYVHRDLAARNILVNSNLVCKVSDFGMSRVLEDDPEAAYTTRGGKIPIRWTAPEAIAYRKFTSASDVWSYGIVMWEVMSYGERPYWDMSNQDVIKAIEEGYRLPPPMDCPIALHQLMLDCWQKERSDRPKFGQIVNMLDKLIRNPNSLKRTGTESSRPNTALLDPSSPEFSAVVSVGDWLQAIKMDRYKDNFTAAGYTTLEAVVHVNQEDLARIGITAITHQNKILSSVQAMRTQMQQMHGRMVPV
Method: as §1

Compound	inhibition at 10 µM [1] [%]	% inhibition of luciferase (firefly luciferase) [%]	DYRK1A activity in kinase profiling (Dyrk1A)	inhibition at 1 µM (Dyrk1A) [%]	BRSK2 activity in kinase profiling (BRSK2)	TBK1 activity in kinase profiling (TBK1)	MPSK1 activity in kinase profiling (MPSK1)	MAP4K3 activity in kinase profiling (MAP4K3)	TESK1 activity in kinase profiling (TESK1)	JNK2 activity in kinase profiling (JNK2)	SYK activity in kinase profiling (SYK)	PKD1 activity in kinase profiling (PKD1)	p38g MAPK activity in kinase profiling (p38g MAPK)	WNK1 activity in kinase profiling (WNK1)	IRAK4 activity in kinase profiling (IRAK4)	MST4 activity in kinase profiling (MST4)	DDR2 activity in kinase profiling (DDR2)	MST2 activity in kinase profiling (MST2)	Lck activity in kinase profiling (Lck)	TGFBR1 activity in kinase profiling (TGFBR1)	further results
Cc1nc2ccc3sc(NC(=O)c4ccc5ncsc5c4)nc3c2s1 [3A5, N-(2-methyl[1,3]thiazolo[5,4-e][1,3]benzothiazol-7-yl)-1,3-benzothiazole-6-carboxamide]	68	6.7 ± 2.8	16	84	88	83	150	125	96	100	99	96	107	99	46	90	88	119	116	93	PIM2 activity in kinase profiling (PIM2): 78; DAPK1 activity in kinase profiling (DAPK1): 73; MARK1 activity in kinase profiling (MARK1): 103; CDK2-Cyclin A activity in kinase profiling (CDK2-Cyclin A): 115; MNK1 activity in kinase profiling (MNK1): 109; CLK2 activity in kinase profiling (CLK2): 3.39; inhibition at 1 µM (CLK2): 97%; IRR activity in kinase profiling (IRR): 87; HIPK1 activity in kinase profiling (HIPK1): 105; GCK activity in kinase profiling (GCK): 90; BRK activity in kinase profiling (BRK): 97; EPH-A4 activity in kinase profiling (EPH-A4): 120
CSc1nc2ccc3nc(NC(=O)c4ccco4)sc3c2s1 [5E4, N-[7-(methylsulfanyl)[1,3]thiazolo[4,5-g][1,3]benzothiazol-2-yl]-2-furamide]	57	29.7 ± 2.9	3	97	83	83	114	121	95	107	102	98	105	90	50	93	95	129	101	94	PIM2 activity in kinase profiling (PIM2): 71; DAPK1 activity in kinase profiling (DAPK1): 76; MARK1 activity in kinase profiling (MARK1): 107; CDK2-Cyclin A activity in kinase profiling (CDK2-Cyclin A): 101; MNK1 activity in kinase profiling (MNK1): 99; CLK2 activity in kinase profiling (CLK2): 3; inhibition at 1 µM (CLK2): 97%; IRR activity in kinase profiling (IRR): 92; HIPK1 activity in kinase profiling (HIPK1): 25; GCK activity in kinase profiling (GCK): 24; BRK activity in kinase profiling (BRK): 98; EPH-A4 activity in kinase profiling (EPH-A4): 112
